Data: patent US12098217B2, “Fusion peptides as antimicrobial agents” (CENTRE NATIONAL DE LA RECHERCHE SCIENTIFIQUE, priority 2019, dated 2024)
≈ marks a conversion by molar mass, not a printed value. Square brackets hold non-standard residues; d marks the D form. Peptide text beside a SMILES is read from it. Cha = N[C@@H](CC1CCCCC1)C(=O)O

Experiments:
[1] = tested on: E. coli 70S ribosome (^Ec70S); assay: ITC, peptide interaction with E. coli 70S ribosome; assay type: binding
E. coli D22 strain = assay: microbe, parasite or virus in culture; assay type: cell-based; conditions: for antibacterial activity, in words: E. coli D22, microdilution broth assay
[2] = tested on: E. coli infected kenny^drawing 2831 flies; assay: In vivo survival assay, D. melanogaster infection model; set-up: species or system Drosophila melanogaster; conditions: 18.4 nl of 1 mM peptide 1 and 24 h after infection; for fold increased survival of infected flies 96 h after injection: E. coli infected kenny flies, versus PBS
Experimental: FIG. 2 concerns the in vivo survival assay using Drosophila melanogaster infection model. Seven-day-old female kenny^C02831 flies were infected by septic injury with a thin tungsten needle previously dipped in an E. coli suspension diluted in PBS and kept at 29° C. 1 and 24 hours after infection, 18.4 nl of peptides (1 mM) diluted in PBS or PBS alone were injected into the flies body cavity. (A) Survival curves. (B) Survival rate after 96 hours. (C) Lethal time 50% (LT50). Data represent means±standard errors of at least 3 independent experiments, each containing three groups of 20 flies. One-Way ANOVA test: *P<0.05, **P<0.01, ***P<0.001. ns: non-significant (P28: Onc112; P30: Onc112-P7; P120: Onc112-P7Scr).
50 ml of E. coli ATCC23754 were grown at 29° C. in LB media up to exponential phase (OD600=0.6-0.8) and centrifuged at 5.000 g for 5 min. The pellet was then diluted in 1 ml of PBS. Immune-deficient kenny^C02831 (Bou Aoun, R., Hetru, C., Troxler, L., Doucet, D., Ferrandon, D., and Matt, N. (2011). Analysis of thioester-containing proteins during the innate immune response of Drosophila melanogaster. J Innate Immun 3, 52-64) flies were raised at 25° C. with 60% humidity on standard cornmeal-agar medium. Seven-day-old female flies were infected by septic injury with a thin tungsten needle previously dipped in an E. coli suspension diluted in PBS and kept at 29° C. 1 and 24 hours after infection, 18.4 nl of peptides (1 mM) diluted in PBS or PBS alone were injected into the fly body cavity (Nanoject II apparatus; Drummond Scientific). Because log-rank analysis can only compare two survival curves at a time in the same experiment, we decided to compute the median lethal time 50 (LT50) and the survival rate at 96 hours to perform One-way ANOVA statistical analysis.

[3] = ITC 30° C., Table 2B, ^Ec70S, Ni = no specific interaction
[4] = ITC 30° C., Table 2B, ^Ec70S, Ni = no specific interaction, FITC peptides (*) values not well defined
[5] = ITC 25° C., E. coli ribosome (70S)
[6] = ITC, 30° C., E. coli ribosome, FITC-Onc112 series

For CC(=O)N[C@@H](CCC(N)=O)C(=O)N[C@@H](CC1CCCCC1)C(=O)N[C@@H](CC(=O)O)C(=O)N[C@@H](CC(C)C)C(=O)N[C@@H](Cc1ccccc1)C(=O)O [Peptide P7, Ac-QChaDLF-OH, reference compound] (Ac-Q[Cha]DLF-OH), the “interaction with ^Ec70S, in words” value ([1]; ITC 30° C.) was “does not specifically bind”, the “Kd (nM)” value [1, 3] was “Ni” and the “ΔG (kcal/mole)” value [1, 4] was “Ni”. The “ΔH (kcal/mole)” value [1, 4] was “Ni”, the “−TΔS (kcal/mole)” value [1, 4] was “Ni” and the “MIC (μM)” value (E. coli D22 strain; D22 strain) was >357 µM. For the same molecule, the “MIC (μg/ml)” value (E. coli D22 strain; D22 strain) was >256 µg/mL, the “antibacterial activity, in words” value (E. coli D22 strain) was “fails to induce any detectable antibacterial activity” and the “effect on survival of E. coli infected flies, in words” value (shortened to “effect on survival”) [2] was “has no effect on fly survival”.
CC[C@H](C)[C@H](NC(=O)[C@@H](CCCNC(=N)N)NC(=O)[C@H](CCCNC(=N)N)NC(=O)[C@@H]1CCCN1C(=O)[C@@H]1CCCN1C(=O)[C@H](CCCNC(=N)N)NC(=O)[C@@H]1CCCN1C(=O)[C@H](CCCNC(=N)N)NC(=O)[C@@H]1CCCN1C(=O)[C@H](CC(C)C)NC(=O)[C@H](Cc1ccc(O)cc1)NC(=O)[C@@H]1CCCN1C(=O)[C@@H]1CCCN1C(=O)[C@H](CCCCN)NC(=O)[C@H](CC(=O)O)NC(=O)[C@@H](N)C(C)C)C(=O)N[C@@H](Cc1ccc(O)cc1)C(=O)N[C@@H](CC(N)=O)C(=O)N[C@H](CCCNC(=N)N)C(N)=O [Peptide P28, reference compound] (H-VDKPPYLPRPRPPR[dR]IYN[dR]-NH2; N-terminus assumed) was tested, and the Kd [1, 5] was 241 nM, the “ΔG (kcal/mol)” value [1, 5] was −9.2 (±0.1) kcal/mol and the “ΔH (kcal/mol)” value [1, 5] was −16.2 (±0.3) kcal/mol. The “affinity for ^Ec70S relative to Py” value ([1]; ITC 30° C.) was “fivefold lower”, the Kd [1, 3] was 84 nM and the “ΔG” value [1, 4] was -9.82 kcal/mol. For the same molecule, the “ΔH” value [1, 4] was -23.9 kcal/mol, the “−TΔS” value [1, 4] was 14.0 kcal/mol and the Kd ([1]; ITC 30° C., Table 2B, ^Ec70S, Ni = no specific interaction, listed as Onc112) was ~84 nM. The Kd [1, 6] was 241 nM, the “ΔG (kcal/mol)” value [1, 6] was −9.2 (±0.1) kcal/mol and the “ΔH (kcal/mol)” value [1, 6] was −16.2 (±0.3) kcal/mol. The “fold increased survival of infected flies 96 h after injection” value [2] was 2.5 fold.
CC[C@H](C)[C@H](NC(=O)[C@@H](CCCNC(=N)N)NC(=O)[C@H](CCCNC(=N)N)NC(=O)[C@@H]1CCCN1C(=O)[C@@H]1CCCN1C(=O)[C@H](CCCNC(=N)N)NC(=O)[C@@H]1CCCN1C(=O)[C@H](CCCNC(=N)N)NC(=O)[C@@H]1CCCN1C(=O)[C@H](CC(C)C)NC(=O)[C@H](Cc1ccc(O)cc1)NC(=O)[C@@H]1CCCN1C(=O)[C@@H]1CCCN1C(=O)[C@H](CCCCN)NC(=O)[C@H](CC(=O)O)NC(=O)[C@@H](N)C(C)C)C(=O)N[C@@H](Cc1ccc(O)cc1)C(=O)N[C@@H](CC(N)=O)C(=O)N[C@H](CCCNC(=N)N)C(=O)N[C@@H](CC(N)=O)C(=O)NCC(=O)N1CCC[C@H]1C(=O)N[C@@H](CCCNC(=N)N)C(=O)N[C@@H](CCC(N)=O)C(=O)N[C@@H](CC1CCCCC1)C(=O)N[C@@H](CC(=O)O)C(=O)N[C@@H](CC(C)C)C(=O)N[C@@H](Cc1ccccc1)C(=O)O [Peptide P30] (H-VDKPPYLPRPRPPR[dR]IYN[dR]NGPRQ[Cha]DLF-OH) was tested, and the “interaction with ^Ec70S, in words” value ([1]; ITC 30° C.) was “efficiently interact”, the Kd [1, 3] was 70.4 nM and the “ΔG” value [1, 4] was -9.92 kcal/mol. For the same molecule, the “ΔH” value [1, 4] was -25.6 kcal/mol, the “−TΔS” value [1, 4] was 15.7 kcal/mol and the “affinity for the ribosome relative to affinity for SC” value ([1]; from Table 2, ^Ec70S versus ^EcSC) was “three times higher affinity”. For the same molecule, the “MIC (μM)” value (E. coli D22 strain; D22 strain) was 0.15 to 0.29 µM, the “MIC (μg/ml)” value (E. coli D22 strain; D22 strain) was 0.5 to 1 µg/mL and the “antibacterial activity, in words” value (E. coli D22 strain) was “no increase in the activity”. For the same molecule, the “effect on survival” value [2] was “two times higher protective effect than its parental peptide P28” and the “fold increased survival of infected flies 96 h after injection” value [2] was 4.5 fold.
In the case of CC[C@H](C)[C@H](NC(=O)[C@@H](CCCNC(=N)N)NC(=O)[C@H](CCCNC(=N)N)NC(=O)[C@@H]1CCCN1C(=O)[C@@H]1CCCN1C(=O)[C@H](CCCNC(=N)N)NC(=O)[C@@H]1CCCN1C(=O)[C@H](CCCNC(=N)N)NC(=O)[C@@H]1CCCN1C(=O)[C@H](CC(C)C)NC(=O)[C@H](Cc1ccc(O)cc1)NC(=O)[C@@H]1CCCN1C(=O)[C@@H]1CCCN1C(=O)[C@H](CCCCN)NC(=O)[C@H](CC(=O)O)NC(=O)[C@@H](N)C(C)C)C(=O)N[C@@H](Cc1ccc(O)cc1)C(=O)N[C@@H](CC(N)=O)C(=O)N[C@H](CCCNC(=N)N)C(=O)N[C@@H](CC(N)=O)C(=O)NCC(=O)N1CCC[C@H]1C(=O)N[C@@H](CCCNC(=N)N)C(=O)N[C@@H](CC1CCCCC1)C(=O)N[C@@H](Cc1ccccc1)C(=O)N[C@@H](CCC(N)=O)C(=O)N[C@@H](CC(C)C)C(=O)N[C@@H](CC(=O)O)C(=O)O [Peptide P120] (H-VDKPPYLPRPRPPR[dR]IYN[dR]NGPR[Cha]FQLD-OH), the Kd [1, 3] is reported as 101 nM, the “ΔG” value [1, 4] is reported as -9.85 kcal/mol and the “ΔH” value [1, 4] is reported as -13 kcal/mol. For the same molecule, the “−TΔS” value [1, 4] was 3.12 kcal/mol, the “MIC (μM)” value (E. coli D22 strain; D22 strain) was 0.29 to 0.58 µM and the “MIC (μg/ml)” value (E. coli D22 strain; D22 strain) was 1 to 2 µg/mL. For the same molecule, the “effect on survival” value [2] was “does not statistically differ from that measured with P28”.
CC[C@H](C)[C@H](NC(=O)[C@@H]1CCCN1C(=O)[C@H](CCCNC(=N)N)NC(=O)[C@@H]1CCCN1C(=O)[C@@H]1CCCN1C(=O)[C@@H](NC(=O)[C@@H]1CCCN1C(=O)[C@H](CCCNC(=N)N)NC(=O)[C@@H]1CCCN1C(=O)[C@H](CC(C)C)NC(=O)[C@H](Cc1ccc(O)cc1)NC(=O)[C@H](CO)NC(=O)CNC(=O)[C@H](CCCCN)NC(=O)[C@H](CC(=O)O)NC(=O)[C@@H](NC(=O)[C@H](CCCCN)NC(=O)c1ccc2c(c1)C(=O)OC21c2ccc(O)cc2Oc2cc(O)ccc21)C(C)C)[C@@H](C)O)C(=O)N[C@@H](Cc1ccc(O)cc1)C(=O)N[C@@H](CC(N)=O)C(=O)N[C@@H](CCCNC(=N)N)C(=O)N[C@@H](CC(N)=O)C(=O)NCC(=O)N1CCC[C@H]1C(=O)N[C@@H](CCCNC(=N)N)C(=O)N[C@@H](CCC(N)=O)C(=O)N[C@@H](CC1CCCCC1)C(=O)N[C@@H](CC(=O)O)C(=O)N[C@@H](CC(C)C)C(=O)N[C@@H](Cc1ccccc1)C(=O)O [Peptide P150] was tested, and the Kd ([1]; ITC 30° C., Table 2B, ^Ec70S, FITC peptides (*), values not well defined, weak interaction) was > 10000 nM, the “ΔG” value [1, 4] was -6.27 kcal/mol and the “ΔH” value [1, 4] was -13 kcal/mol. The “−TΔS” value [1, 4] was 6.7 kcal/mol, the “factor by which MIC is lower than that of P122” value (E. coli D22 strain) was 4 to 16 and the “MBC” value (E. coli D22 strain; D22 strain) was 128 µg/mL (≈ 33.7 µM). For the same molecule, the “MIC (μM)” value (E. coli D22 strain; D22 strain) was 16.9 to 33.8 µM and the “MIC (μg/ml)” value (E. coli D22 strain; D22 strain) was 64 to 128 µg/mL.
